Laboratory results published in paper PMC4849104, “Selected novel 5'-amino-2'-hydroxy-1, 3-diaryl-2-propen-1-ones arrest cell cycle of HCT-116 in G0/G1 phase” (EXCLI Journal, 2016).
Several values for one entry are separate records, joined by “and”; a condition that tells them apart may be missing. Equal values may be shown once.

Key:
[1] = tested on: human breast cancer (MCF-7) cells; experiment: Cytotoxicity by MTT assay on MCF-7; format: cell-based; conditions: for IC50 / IC50 (μM) MCF-7: MTT assay, 48 h incubation; for cytotoxicity against MCF-7 (in words): MTT, close to 200 µM including SEM
Method: (§1) Cytotoxicity of the synthesized compounds was evaluated in cancer cells namely human colon cancer (HCT-116) cells and human breast cancer (MCF-7) cells and normal kidney epithelial cells (Vero). These cells were originally procured from National Cancer Center for Cell Science, Pune, India and cultured in our lab using Dulbecco's modified Eagles medium (DMEM) containing 10 % fetal bovine serum (FBS) at 37 °C in an atmosphere containing 5 % CO2. All other chemicals used in this study were purchased from Sigma-Aldrich, USA.
(§2) Cell suspension containing 1 x 10^4 cells in 0.1 mL was seeded in a 96 well plate for 24 h. Test compounds were serially diluted with the medium to get a stock solution of 400 µM, 200 µM, 100 µM, 50 µM. After 24 h of incubation, 100 µL of test solution from respective stocks was added in triplicate and incubated for 48 h. After the treatment, drug-containing media was removed and 20 µL of MTT reagent (5 mg/mL in PBS) was added to each well. After 4 h of incubation at 37 °C, the MTT reagent was removed and 100 µL of 100 % DMSO was added to each well to solubilize formazan crystals. The optical density was measured using an ELISA plate reader at 540 nm and percentage cytotoxicity was calculated. (Kumar et al., 2012[15]; Zi and Simoneau, 2005[31]).

[2] = tested on: normal kidney epithelial cells (Vero); experiment: Cytotoxicity by MTT assay on Vero; format: cell-based; conditions: 48 h incubation
Method: as §1, §2

[3] = tested on: human colon cancer (HCT-116) cells; experiment: Cytotoxicity by MTT assay on HCT-116; format: cell-based; conditions: for IC50 / IC50 (μM) HCT-116: MTT assay, 48 h incubation; for cytotoxicity against HCT-116 (in words): MTT, close to 200 µM including SEM
Method: as §1, §2

HCT-116 cells [4] = experiment: Cell cycle analysis by flow cytometry with propidium iodide; format: cell-based, human; conditions: for phase of cell cycle arrest: HCT-116, AC-10 100 µM, AC-13 and AC-14 50 µM, doxorubicin 1 µM
Method: Flow cytometric analysis technique evaluates the effect of test compounds on cell cycle progression and check-points. Cells (1 x 10^6) were seeded in 25 cm^2 flasks and, after overnight adherence, incubated with test compounds. Then cells were detached by trypsinization and mixed with floating cells, centrifuged and washed with PBS. The cell pellets were fixed in 70 % ice-cold methanol and stored at -20 °C for 24 h. After that cell pellets were washed with PBS and isotonic PI solution [25 µM propidium iodide, 0.03 % NP-40 and 40 µg /ml RNase A] was added. The stained cells were analyzed using Accuri C6 flow cytometer (BD Biosciences, San Jose, CA, USA) with excitation at 488 nm and emission at 575/40 nm (Reddy et al., 2015[25]).

HCT-116 cells [5] = experiment: Acridine orange/ethidium bromide (AO/EB) dual nuclear staining, apoptotic index; format: cell-based, human; conditions: HCT-116, AO/EB; for percentage apoptotic nuclei (apoptotic index): mean ± SEM
Method: DNA-binding dyes Acridine orange (AO) and Ethidium bromide (EB) (Sigma, USA) were used for the morphological detection of apoptotic cells. 5 x 10^3 cells were seeded per well in 24-well plates with DMEM, containing 10 % FBS. After 24 h, cells were treated with selected concentrations of test compounds and incubated for 24 h. The media was removed and plate was washed with phosphate buffer saline (PBS, pH 7.4). Cells were fixed in ice-cold methanol for 20 min, washed with PBS again and stained with acridine orange and ethidium bromide stain (20/30 µg/ml). After incubation for 20 min at 37 °C, and washing with PBS thrice, the plate was observed under a fluorescent microscope for morphological changes in nucleus such as condensed chromatin and fragmented nuclei. The apoptotic index (AI) was calculated as % of apoptotic cells from randomly counted 100 cells in each treatment group (Reddy et al., 2015[25]).

Row | Compound | melting point | IC50 ([1]; Homo sapiens, MCF7) | IC50 ([2]; Chlorocebus sabaeus, Vero) | IC50 ([3]; Homo sapiens, HCT-116) | IC50 (μM) MCF-7 [1] | cytotoxicity against HCT-116 (in words) [3] | cytotoxicity against MCF-7 (in words) [1] | also measured
1 | Nc1ccc(O)c(C(=O)/C=C/c2ccccc2)c1 [AC-1, (E)-1-(5-Amino-2-Hydroxyphenyl)-3-phenylprop-2-en-1-one] | 126 °C | 1960 ± 776 µM | > 200 µM | 299 ± 49.8 µM | – | – | – | –
2 | Nc1ccc(O)c(C(=O)/C=C/c2ccc(Cl)cc2)c1 [AC-2, (E)-1-(5-Amino-2-Hydroxyphenyl)-3-(4-chlorophenyl)prop-2-en-1-one] | 138 °C | – | > 200 µM | 205 ± 3.15 µM | No activity | high cytotoxicity | – | –
3 | Nc1ccc(O)c(C(=O)/C=C/c2ccc(F)cc2)c1 [AC-3, (E)-1-(5-Amino-2-Hydroxyphenyl)-3-(4-fluorophenyl)prop-2-en-1-one] | 154 °C | 542 ± 38.5 µM | > 200 µM | 174 ± 3.53 µM | – | high cytotoxicity | – | –
4 | Nc1ccc(O)c(C(=O)/C=C/c2cccc([N+](=O)[O-])c2)c1 [AC-4, (E)-1-(5-Amino-2-Hydroxyphenyl)-3-(3-nitrophenyl)prop-2-en-1-one] | 112 °C | – | > 200 µM | 309 ± 74.1 µM | No activity | – | – | –
5 | CCOc1ccc(/C=C/C(=O)c2cc(N)ccc2O)cc1 [AC-5, (E)-1-(5-Amino-2-Hydroxyphenyl)-3-(4-ethoxyphenyl)prop-2-en-1-one] | 135 °C | – | > 200 µM | – | No activity | – | – | IC50 (μM) HCT-116 [3]: No activity
6 | COc1cccc(/C=C/C(=O)c2cc(N)ccc2O)c1 [AC-6, (E)-1-(5-Amino-2-Hydroxyphenyl)-3-(3-methoxyphenyl)prop-2-en-1-one] | 110 °C | – | > 200 µM | – | No activity | – | – | IC50 (μM) HCT-116 [3]: No activity
7 | COc1cc(/C=C/C(=O)c2cc(N)ccc2O)ccc1O [AC-7, (E)-1-(5-Amino-2-Hydroxyphenyl)-3-(4-hydroxy-3-methoxyphenyl)prop-2-en-1-one] | 136 °C | 248 ± 4.31 µM | > 200 µM | 393 ± 77.9 µM | – | – | – | –
8 | COc1ccc(/C=C/C(=O)c2cc(N)ccc2O)cc1O [AC-8, (E)-1-(5-Amino-2-Hydroxyphenyl)-3-(3-hydroxy-4-methoxyphenyl)prop-2-en-1-one] | 136 °C | 171 ± 12.9 µM | > 200 µM | 123 ± 7.2 µM | – | high cytotoxicity | high cytotoxicity | –
9 | COc1ccc(/C=C/C(=O)c2cc(N)ccc2O)cc1OC [AC-9, (E)-1-(5-Amino-2-Hydroxyphenyl)-3-(3,4-dimethoxyphenyl)prop-2-en-1-one] | 90 °C | 190 ± 10.5 µM | > 200 µM | 186 ± 7.3 µM | – | high cytotoxicity | high cytotoxicity | –
10 | Nc1ccc(O)c(C(=O)/C=C/c2ccccc2O)c1 [AC-10, (E)-1-(5-Amino-2-Hydroxyphenyl)-3-(2-hydroxyphenyl)prop-2-en-1-one] | 130 to 132 °C | 74.7 ± 3.5 µM | > 200 µM | 95.4 ± 1.7 µM | – | high cytotoxicity | high cytotoxicity | % cells in G0/G1 phase (M1) (HCT-116 cells [4]; HCT-116, 100 µM, 48 h treatment): 70.5%; phase of cell cycle arrest (HCT-116 cells [4]): G0/G1 phase; percentage apoptotic nuclei (apoptotic index) (HCT-116 cells [5]; 100 µM): 27 ± 3.21%
11 | COc1ccc(/C=C/C(=O)c2cc(N)ccc2O)cc1 [AC-11, (E)-1-(5-Amino-2-Hydroxyphenyl)-3-(4-methoxyphenyl)prop-2-en-1-one] | 102 to 104 °C | 1030 ± 60.6 µM | > 200 µM | – | – | – | – | IC50 (μM) HCT-116 [3]: No activity
12 | Nc1ccc(O)c(C(=O)/C=C/c2ccc3c(c2)OCO3)c1 [AC-13, (E)-1-(5-Amino-2-Hydroxyphenyl)-3-(3,4-methylenedioxyphenyl)prop-2-en-1-one] | 128 °C | 130 ± 3.8 µM | > 200 µM | 42.1 ± 4 µM | – | high cytotoxicity | high cytotoxicity | % cells in G0/G1 phase (M1) (HCT-116 cells [4]; HCT-116, 50 µM, 48 h treatment): 66.5%; % cells in G2/M phase (M3) (HCT-116 cells [4]; HCT-116, 50 µM, 48 h treatment): 25.1%; phase of cell cycle arrest (HCT-116 cells [4]): G0/G1 and G2/M phase; increase in apoptotic nuclei compared to medium control (HCT-116 cells [5]; 50 µM): about five; percentage apoptotic nuclei (apoptotic index) (HCT-116 cells [5]; 50 µM): 31% and 31 ± 4.16%
13 | COc1cc(/C=C/C(=O)c2cc(N)ccc2O)cc(OC)c1OC [AC-14, (E)-1-(5-Amino-2-Hydroxyphenyl)-3-(3,4,5-trimethoxyphenyl)prop-2-en-1-one] | 136 to 138 °C | 197 ± 7.9 µM | > 200 µM | 62 ± 2.3 µM | – | high cytotoxicity | high cytotoxicity | % cells in G0/G1 phase (M1) (HCT-116 cells [4]; HCT-116, 50 µM, 48 h treatment): 70.8%; phase of cell cycle arrest (HCT-116 cells [4]): G0/G1 phase; percentage apoptotic nuclei (apoptotic index) (HCT-116 cells [5]; 50 µM): 24.3 ± 3.53%
14 | Nc1ccc(O)c(C(=O)/C=C/c2ccc(OCc3ccccc3)cc2)c1 [AC-15, (E)-1-(5-Amino-2-Hydroxyphenyl)-3-(4-benzyloxyphenyl)prop-2-en-1-one] | 136 to 138 °C | – | > 200 µM | 211 ± 26 µM | No activity | – | – | –
15 | COc1cccc2c1C(=O)c1c(O)c3c(c(O)c1C2=O)C[C@@](O)(C(=O)CO)C[C@@H]3O[C@H]1C[C@H](N)[C@H](O)[C@H](C)O1 [doxorubicin, reference compound] | – | – | – | – | – | – | – | more accumulation of cells in G2/M phase as compared to normal control (HCT-116 cells [4]; HCT-116, 1 µM (standard), normal control 23.0 %): 7.4%; phase of cell cycle arrest (HCT-116 cells [4]): G2/M phase
16 | (E)-1-(5-Amino-2-Hydroxyphenyl)-3-(3,4-dichlorophenyl)prop-2-en-1-one [AC-12] | – | – | – | – | – | – | – | IC50 [1]: 236 ± 9.8 µM; IC50 [2]: > 200 µM; IC50 [3]: 169 ± 66.7 µM
